Assay results as given in patent US5371102A, “Compositions and methods of inhibiting thyroid activity” (priority 1993, dated 1994).
“Also recorded” adds a separate entry of the source.

Assays:
[1] = target: T1, LPX (Bos taurus, UniProt P80025); assay: LPX suicide inactivation kinetics; assay type: biochemical, bovine; conditions: presence of hydrogen peroxide
T1 construct: purchased Sigma Chemical Company
Description: (§1) Materials used in the examples below were obtained from the following sources. Bovine LPX, bovine liver catalase, glucose oxidase, 30% hydrogen peroxide, glucose, guaiacol, ABTS and deuterium oxide were purchased from Sigma Chemical Company. Selenium dioxide, MBI ^13 CH3 I and PBA were purchased from Aldrich Chemical Company and PBA was purified as previously described by Fieset et al., Reagents for Organic Synthesis, Vol. I, pp.135-139, John Wiley and Sons, N.Y. (1967). LPX purity was checked by PAGE, as described by Doerge, D.R., et al. in, Biochem. Pharmacol., Vol.36, pp.972-974 (1986). TPX was purified from hog thyroids obtained from a local slaughterhouse by published procedures. Doerge & Takazowa, Chemical Research in Toxicology, Vol. 3, pp. 98-101 (1990). TPX purity was determined by LC and its concentration determined spectophotometrically. Hydroperoxide concentrations were determined by iodometric titration, as described by Kolthoff, et al., in "Quantitative Chemical Analysis", Macmillan, London, pp.842-860 (1969). MMBI, and BI were synthesized by published procedures as described by Doerge, D.R., Biochem, Vol. 27, pp. 3697-3700 (1988) and were recrystallized from aqueous ethanol. MeBI was purified by distillation and DMeBI^+ was synthesized and purified by recrystallization from ethyl acetate/methanol. 1-^13 C-MMBI was synthesized from ^13 CH3 I according to the procedure disclosed by Doerge, D.R., in, J. Lab. Comp. and Radiopharm., Vol.25, pp.985-990 (1988). PPHP and PPA were prepared, purified and analyzed as previously described by Doerge, Biochem, Vol.27, p.11 (1988). The methyl ester of 1-methyl-benzimidazole-2-sulfinic acid was prepared by addition of hydrogen peroxide (5 equivalents of a 10 M solution) to MMBI (0.1 M) in methanol. The products, MeBI and the ester, were obtained following preparative TLC on silica (Uniplate, Analtech Co., Newark, DL) using 5% methanol/chloroform as eluant.
Inhibition of LPX activity by thiones was determined from the kinetics of iodide ion, guaiacol or ABTS oxidation assays conducted at 25° C. Kinetic parameters of suicide inactivation were determined as previously described. Doerge, Biochem. Vol.27, pp.3697-3700 (1988).

[2] = target: T1, LPX; assay: LPX-catalyzed oxidation of guaiacol or ABTS; assay type: biochemical, bovine; conditions: LPX plus hydrogen peroxide
Description: (§2) Materials used in the examples below were obtained from the following sources. Bovine LPX, bovine liver catalase, glucose oxidase, 30% hydrogen peroxide, glucose, guaiacol, ABTS and deuterium oxide were purchased from Sigma Chemical Company. Selenium dioxide, MBI ^13 CH3 I and PBA were purchased from Aldrich Chemical Company and PBA was purified as previously described by Fieset et al., Reagents for Organic Synthesis, Vol. I, pp.135-139, John Wiley and Sons, N.Y. (1967). LPX purity was checked by PAGE, as described by Doerge, D.R., et al. in, Biochem. Pharmacol., Vol.36, pp.972-974 (1986). TPX was purified from hog thyroids obtained from a local slaughterhouse by published procedures. Doerge & Takazowa, Chemical Research in Toxicology, Vol. 3, pp. 98-101 (1990). TPX purity was determined by LC and its concentration determined spectophotometrically. Hydroperoxide concentrations were determined by iodometric titration, as described by Kolthoff, et al., in "Quantitative Chemical Analysis", Macmillan, London, pp.842-860 (1969). […] PPHP and PPA were prepared, purified and analyzed as previously described by Doerge, Biochem, Vol.27, p.11 (1988). […]
Inhibition of LPX activity by thiones was determined from the kinetics of iodide ion, guaiacol or ABTS oxidation assays conducted at 25° C. Kinetic parameters of suicide inactivation were determined as previously described. […]

[3] = target: T1, LPX; assay: LPX-catalyzed tyrosine iodination; assay type: biochemical, bovine
Description: as §2
In this experiment the effect of DMMBI on tyrosine iodination catalyzed by LPX was determined. […]

[4] = target: T1, LPX; assay: LPX-mediated covalent binding of labelled thiocarbamides to LPX; set-up: species or system bovine; conditions: +H2O2 vs. +H2O2 +KI; 14C- and 35S-labelled
Description: as §1
LPX-mediated covalent binding of ^14 C- and ^35 S-labelled thiocarbamides to LPX under iodide-dependent and -independent conditions was measured.

[5] = target: T1, LPX; assay: LPX-mediated oxidative turnover of DMMBI and hydroperoxide; assay type: biochemical, bovine
Description: as §1
The distinct methyl and aromatic proton resonances of DMMBI and DMeBI^+ in the ^1 H-NMR spectrum provide a sensitive method to detect enzymatic transformation of DMMBI. DMMBI (100 μM) was incubated with LPX (50 μM), iodide ion (5 mM) and hydrogen peroxide (300 μM) in 10 mls of 0.01 M phosphate buffer solution, pH 7.0. The solution was incubated at 25° C. for 1 min followed by addition of catalase. The sample was then lyophilized and analyzed by ^1 H-NMR. The solids were dissolved in 1 ml D2 O and lyophilized again. Proton-deuterium exchange was repeated twice more and the solids were dissolved in 0.5 ml D2 O containing DSS. The HOD peak was suppressed in a one pulse presaturation experiment where the HOD peak was irradiated for 2 sec prior to acquisition of sample resonances. The ^1 H-NMR spectra of DMeBI^+ and DMMBI were similarly recorded in D2 O.
PPHP is a chromophoric hydroperoxide interchangeable with hydrogen peroxide in many peroxidase-catalyzed reactions. LPX-catalyzed turnover of PPHP gives PPA, the corresponding alcohol, which can be quantitated by HPLC. The use of PPHP permits a direct correlation of LPX-catalyzed substrate consumption and product formation with actual hydroperoxide turnover.

[6] = kinetics of thione oxygenation by hydrogen peroxide/TFA; assay type: physicochemical; conditions: thione 25 μM, H2O2 34 mM, TFA 163 mM in methanol, 25° C.; relative to DMMBI
Method: The kinetics of thione oxygenation were determined for MBI, MMBI and DMMBI. Oxygenation by hydrogen peroxide/TFA was measured spectrophotometrically (305 nm) at 25° C. by addition of thione (final concentration 25 μM) to hydrogen peroxide (34 mM) and TFA (163 mM) in methanol.

[7] = PPHP-supported LPX-catalyzed iodination

tyrosine iodination [3]: inhibits tyrosine iodination
covalent binding to LPX [4]: no binding over unstimulated controls
turnover events without LPX inactivation ([5]; LPX, hydrogen peroxide and iodide ion): > 300 turnover events
moles of PPA formed per mole of DMMBI consumed [5, 7]: 3.2 ± 0.2 mol
moles of PPHP consumed per mole of DMMBI consumed [5, 7]: 3.2 mol
relative rate of oxygenation [6]: 1
SMILES: Cn1c(=S)n(C)c2ccccc21 [DMMBI, 1,3-dimethylbenzimidazole-2-thione]
LPX inactivation / loss of LPX activity [1]: does not inactivate LPX or TPX
effect on rate of enzymatic oxidation of guaiacol or ABTS [2]: did not reduce the rate of enzymatic oxidation; also recorded: does not affect LPX or TPX/hydrogen peroxide-catalyzed oxidation of the substrates ABTS and guaiacol
conversion of DMMBI to DMeBI+ ([5]; LPX, 3 equivalents H2O2 and iodide ion): quantitative conversion of DMMBI to DMeBI^+
conversion of DMMBI to DMeBI+ ([5]; controls: no iodide ion, no LPX or no hydrogen peroxide): no conversion of DMMBI to DMeBI^+ was observed
